# Source: publication PMC9569971, “New Oxazolo[5,4-d]pyrimidines as Potential Anticancer Agents: Their Design, Synthesis, and In Vitro Biological Activity Research” (International Journal of Molecular Sciences, 2022)
# Assays:
# p53 = p53 Human ELISA Kit, HT29 lysate; format: cell-based; settings: lysate of HT29 cells treated with 3g; SD ±0.97
# Procedure: The assay was performed on a lysate of the HT29 colon adenocarcinoma cell line treated with compound 3g. The microwells of the 96-well plate were washed 2 times with approximately 400 µL of washing buffer per well. The washing buffer was left in the wells for approximately 15 s prior to aspiration. Care was taken not to scratch the surface of the microwells. After the final rinsing step, the wells were emptied. An absorbent swab was used to remove excess wash buffer. Standard dilutions were applied to the microwell plate. Two rows of human p53 standard were prepared at dilutions ranging from 50.00 to 0.78 U/mL. […] The color change was monitored with an ELISA measured at 620 nm. The colored product was formed in proportion to the quantity of human p53 protein present in the sample and the standard. […] The results were read immediately after the addition of the enzyme stop solution. Absorbance was measured with a spectrophotometer at 450 nm. A standard curve was prepared from 7 dilutions of the human p53 standard from which the values for compound 3g were read.
# Biological assays were performed in three independent replicates, and each replicate used four samples. […] For the assessment of cytotoxicity, mathematical models were developed using the GraphPad PRISM software, based on which CC50 was determined. […]
# [1] = test system: lung adenocarcinoma (A549); test: MTT viability assay, A549; format: cell-based, human
# [2] = test system: HT29 primary colon adenocarcinoma cells; test: Detection of apoptosis (Annexin V FITC / propidium iodide); format: cell-based, human; design: unit not given here; settings: 24 h
# In short: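 After 24 h growth at 30,000 cells/well, HT29 cells were treated with compound at 1, 2, 5 and 10 µM for 24 h. They were then stained with Annexin V-FITC/propidium iodide in PBS with Mg²⁺/Ca²⁺ for 20 min at 37 °C.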
structure (smiles),measurement,setting,value
"Cc1noc(N)c1-c1nc2c(NCCCN(C)C)ncnc2o1 [Compound 3g, 2-(5-Amino-3-methylisoxazol-4-yl)-7-N-[3-(N,N-dimethylamino)propyl]aminooxazolo[5,4-d]pyrimidine]",p53 concentration,p53,4.22 [U/mL]
same,SI (selectivity index),[1]; CC50 NHDF / CC50 A549,1.123
same,CC50,"[1]; Homo sapiens, A549, MTT, tested 1–500 µM",138 ± 12.9 µM
same,apoptosis mean,[2]; 1 μM,3.74
same,late apoptosis mean,[2]; 1 μM,8.08
same,necrosis mean,[2]; 1 μM,11.28
same,percent live (viable) cells,[2]; 1 μM,76.90
same,apoptosis mean,[2]; 2 μM,9.72
same,late apoptosis mean,[2]; 2 μM,9.30
same,necrosis mean,[2]; 2 μM,6.34
same,percent live (viable) cells,[2]; 2 μM,74.65
same,apoptosis mean,[2]; 5 μM,51.54
same,late apoptosis mean,[2]; 5 μM,23.48
same,necrosis mean,[2]; 5 μM,1.18
same,percent live (viable) cells,[2]; 5 μM,23.81
same,apoptosis mean,[2]; 10 μM,45.24
same,late apoptosis mean,[2]; 10 μM,29.23
same,necrosis mean,[2]; 10 μM,0.90
same,percent live (viable) cells,[2]; 10 μM,24.62
